{"source": "patent US8703195B2", "about": "“Method for solubilising, dispersing and stabilising of substances, products manufactured according to the method as well as the use thereof” (Biorem AG, priority 2006, dated 2014)", "key": {"[1]": {"settings": "dissolved in water; cited from earlier work"}, "[2]": {"settings": "pH 5; cited from earlier work"}, "[3]": {"assay": "Bioavailability of coenzyme Q10", "type": "in vivo", "settings": "oral administration, solubilised with poloxamer and resin or tocopherol by this method"}, "[4]": {"settings": "unformulated active agent, in practice; cited from earlier work"}, "[5]": {"settings": "cited from earlier work"}}, "note": "Like-named read-outs stand apart in the source and are kept apart here."}
{"compound": "O=C1O[C@H]([C@@H](O)CO)C(O)=C1O", "note": "[Vitamin C, ascorbic acid]", "values": [{"measurement": "time until solution in water becomes light yellow", "setting": "[1]", "value": "2 to 3", "unit": "days"}]}
{"compound": "Abamectin", "values": [{"measurement": "stability against hydrolysis in aqueous solutions", "setting": "[2]", "value": "stable"}]}
{"compound": "COC1=C(OC)C(=O)C(C/C=C(\\C)CC/C=C(\\C)CC/C=C(\\C)CC/C=C(\\C)CC/C=C(\\C)CC/C=C(\\C)CC/C=C(\\C)CC/C=C(\\C)CC/C=C(\\C)CCC=C(C)C)=C(C)C1=O", "note": "[coenzyme Q10]", "values": [{"measurement": "bioavailability", "setting": "[3]", "value": "about 85%"}, {"measurement": "bioavailability", "setting": "[4]", "value": 10, "unit": "%"}, {"measurement": "solubility in water", "setting": "[5]", "value": "not water-soluble"}]}
